Test system: human subjects
Assay: Human olfactory psychophysics: valence rating by OR7D4 genotype
Type: in vivo
Settings: for valence rating, OR7D4 RT/WM vs RT/RT subjects: 7-point scale, two concentrations pooled; for valence rating, RT/S84N subjects vs RT/RT controls: N=7 RT/S84N; for valence rating of OR7D4 WM/WM subjects relative to solvent propylene glycol: N=10 WM/WM; for valence rating, RT/P79L subjects vs RT/RT controls: N=30 RT/P79L
Method: Human olfactory psychophysics. All human subjects gave informed consent to participate in this study and were tested in a well-ventilated room. Normal human subjects (n=412; 218 female, 194 male; median age 34, age range 19-75) were pre-screened to exclude pregnant women and those with medical conditions causing general impairment of the sense of smell. All subjects completed two replicates of the test separated by at least 4 days. Odors were presented in amber vials as previously described (see, e.g., Keller, A., et al., Nat Neurosci 7, 337-338 (2004); herein incorporated by reference in its entirety) using bar-coded symbols to ensure that subjects were blind to the identity of all odors. The intensity and valence of 66 odors at two concentrations (“high” and “low”) and two solvents was rated using a 7-point scale. Thresholds were calculated using the single staircase method with seven reversals (see, e.g., Doty, R. L., et al., Chem Senses 20, 645-656 (1995); Doty, R. L. & Laing, D. G. in Handbook of Olfaction and Gustation (ed. Doty, R. L.) pp. 203-228 (Marcel Dekker, Inc., New York, 2003); each of which are herein incorporated by reference in their entireties). Threshold tests included both steroids as binary dilutions from […] (binary dilution 6) to 1: 134,217,728 (binary dilution 27). Subjects who could not reliably distinguish a 1:64 dilution of androstenone and androstadienone from solvent were operationally defined as anosmic to these odorous steroids, although it could not be excluded that these subjects could detect higher concentrations of these steroids (see, e.g., Bremner, E. A., et al., Chem Senses 28, 423-432 (2003); herein incorporated by reference in its entirety). Odor profiling used the method established by Dravnieks, et al. (see, e.g., Dravnieks, A., et al., Science 218, 799-801 (1982); herein incorporated by reference in its entirety).
Stimuli for olfactory psychophysics. All odors were presented as one ml of an odor dilution in either propylene glycol or paraffin oil in 20 ml amber glass vials. All of these compounds were used in the intensity and valence rating portion of the smell test.
Olfactory ratings. The intensity and valence of 66 odors were rated at two different concentrations (high and low) and the intensity and valence of the two solvents (paraffin oil and propylene glycol) was rated three times. Prior to these ratings, six stimuli that represented the spectrum of intensity and valence of the stimuli used in the study were presented to allow the subjects to calibrate the usage of the scale. The subjects were unaware that the six first stimuli served that purpose. After the rating of the 66 odors at two concentrations and the rating of the solvents, 15 stimuli that were presented earlier in the experiment were repeated to test for the effect of adaptation and olfactory fatigue on the ratings. The subjects were not aware that the last 15 stimuli served this purpose. These 15 stimuli and the six first stimuli were not included in the analysis presented here. […] The 15 control stimuli and their concentrations were as follows:
In addition there was a button on the screen labeled “I can't smell anything” and a button labeled “Don't Know”. If the “Don't Know” button was pressed, no rating was recorded. If the “I can't smell anything” button was pressed, a 0 was recorded for the intensity rating and no rating was recorded for the valence rating. The other ratings were transformed according to the following scheme:
• Extremely Weak=1 • Very Weak=2 • Slightly Weak=3 • Neither Weak nor Strong=4 • Slightly Strong=5 • Very Strong=6 • Extremely Strong=7 Valence Rating • Extremely Unpleasant=1 • Very Unpleasant=2 • Slightly Unpleasant=3 • Neither Unpleasant nor Pleasant=4 • Slightly Pleasant=5 • Very Pleasant=6 • Extremely Pleasant=7
Averages for the ratings of the different genotypes were calculated. […]

Compound | valence rating, OR7D4 RT/WM vs RT/RT subjects | valence rating, RT/S84N subjects vs RT/RT controls | valence rating of OR7D4 WM/WM subjects relative to solvent propylene glycol | valence rating, RT/P79L subjects vs RT/RT controls
C[C@@]12C=CC[C@H]1[C@@H]1CCC3=CC(=O)CC[C@]3(C)[C@H]1CC2 [androstadienone, androsta-4,16-dien-3-one] | more pleasant | less pleasant | more unpleasant than the solvent | more pleasant
C[C@]12CCC(=O)C[C@@H]1CC[C@@H]1[C@@H]2CC[C@]2(C)C=CC[C@@H]12 [androstenone, 5α-androst-16-en-3-one] | more pleasant | less pleasant | more unpleasant than the solvent | more pleasant

Source: US8298781B2, “Compositions and methods for characterizing and regulating olfactory sensation” (Duke University, priority 2007, dated 2012)
